Where “and” joins values, the source holds several entries; their conditions need not be identical. Identical values can stand only once. Blank lines part the entries; values can stand above or below the compound they belong to.
Columns and labels:
[1] = biological target: T1, THIK-1 T110A (Homo sapiens, UniProt Q9HB14, T110A); assay: Inside-out excised patch recordings, oocytes, THIK-1 T110A mutant; type: cell-based
T1 construct: expressed in transfected cells; host or cells: Xenopus oocytes (mRNA injection)
T1 sequence (Q9HB14 1-408 T110A): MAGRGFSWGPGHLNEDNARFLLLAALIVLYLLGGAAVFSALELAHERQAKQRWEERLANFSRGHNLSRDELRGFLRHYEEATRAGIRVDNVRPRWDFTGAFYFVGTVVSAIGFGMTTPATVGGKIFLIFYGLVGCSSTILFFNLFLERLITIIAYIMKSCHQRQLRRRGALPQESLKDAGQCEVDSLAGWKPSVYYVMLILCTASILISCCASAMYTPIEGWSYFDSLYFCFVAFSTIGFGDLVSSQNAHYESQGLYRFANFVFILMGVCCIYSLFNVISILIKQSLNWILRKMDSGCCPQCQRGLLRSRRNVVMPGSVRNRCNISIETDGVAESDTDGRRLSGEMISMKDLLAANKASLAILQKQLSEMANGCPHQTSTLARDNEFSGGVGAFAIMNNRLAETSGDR
Text: (§1) Human K2P13.1 THIK-1 (GenBank accession number: NM_022054) and human K2P12.1 THIK-2 (NM_022055.1) were used in this study. For functional expression studies, the respective K^+ channel subtype coding sequences were subcloned into the oocyte expression vector pSGEM or the dual-purpose expression vector pFAW[41] and verified by sequencing. All mutant channels were obtained by site-directed mutagenesis and verified by sequencing. To increase surface expression and macroscopic currents, measurements of THIK-2 channels used a mutated ER retention motif, (R11A R12A R14A R15A R16A; THIK-2*)[20]. Vector DNA was linearized with NheI or MluI, and mRNA was synthesized in vitro using the SP6 or T7 AmpliCap Max High Yield Message Maker Kit (Cellscript, USA) or HiScribe T7 ARCA mRNA Kit (New England Biolabs).
(§2) Two-electrode voltage–clamp (TEVC) studies were performed in Xenopus oocytes. All animal use conformed to the Guide for the Care and Use of Laboratory Animals (NIH Publication 85–23), and all experiments using Xenopus toads were approved by the local ethics panels. Oocytes were stored at 17 °C in ND96 recording solution composed of (in mM): 96 NaCl, 2 KCl, 1.8 CaCl2, 1 MgCl2, 5 HEPES (pH 7.5 adjusted with NaOH and HCl), supplemented with Na-pyruvate (275 mg L^–1), theophylline (90 mg L^–1) and gentamicin (50 mg L^–1). Oocytes were injected with 1 ng mRNA for WT or mutant channels, and were incubated for 24–48 h at 17 °C. Two-electrode voltage clamp recordings were then performed as previously described[42],[43]. For macroscopic patch–clamp measurements, oocytes were obtained as described above incubated at 17 °C in a solution containing (mM): 54 NaCl, 30 KCl, 2.4 NaHCO3, 0.82 MgSO4 ×7 H2O, 0.41 CaCl2, 0.33 Ca(NO3)2 ×4 H2O and 7.5 TRIS (pH 7.4 adjusted with NaOH and HCl) for 1–4 days before use. Excised patch recordings in inside-out configuration conditions were performed at room temperature. Patch pipettes were made from thick-walled borosilicate glass GB 200TF-8P (Science Products), had resistances of 0.2–0.5 MΩ (tip diameter, 10–25 µm) and filled with a pipette solution (in mM): 120 KCl, 10 HEPES and 3.6 CaCl2 (pH 7.4 adjusted with KOH and HCl). Intracellular bath solutions and compounds were applied to the cytoplasmic side of excised patches for the various K^+ channels through a gravity flow multi-barrel pipette system. The intracellular solution had the following composition (in mM): 120 KCl, 10 HEPES, 2 EGTA and 1 pyrophosphate (pH adjusted with KOH and HCl). Currents were recorded with an EPC10 amplifier (HEKA Electronics) and sampled at 10 kHz or higher, with filtering set to 3 kHz (–3 dB) or higher, as appropriate for sampling rate. For measurements of GPCR activation, whole-cell currents were recorded for THIK-1 in transiently transfected HEK-293 cells. Cells were stimulated by a ramp protocol between −100 and +60 mV (holding potential, −80 mV). The pipette solution was composed of (in mM): 140 KCl, 2 MgCl2, 1 CaCl2, 2.5 EGTA and 10 HEPES (pH 7.3 adjusted with KOH and HCl). The extracellular bath solution had the following composition (in mM): 135 NaCl, 5 KCl, 2 MgCl2, 2 CaCl2, 10 glucose and 10 HEPES pH (pH 7.3 adjusted with NaOH and HCl). Oxotremorine M (Oxo-M) was added to extracellular bath solution to obtain the final concentration. Single-channel currents were recorded with an Axopatch 200B amplifier through a Digidata 1440A digitizer (Molecular Devices). Data were filtered at 2 kHz and recorded at a 200-kHz sampling rate with the program Clampex (Molecular Devices). Pipette solution and bath solution for cell-attached recordings contained (in mM): 140 KCl, 2 MgCl2, 1 CaCl2 and 10 HEPES (pH 7.4 adjusted with KOH and HCl). For inside-out recordings, the bath solution contained (in mM): 140 KCl, 2 MgCl2, 1 CaCl2 and 10 HEPES (pH 7.2 adjusted with KOH and HCl). All experiments were conducted at room temperature. […]

[2] = biological target: T2, THIK-2*-Y292A (Homo sapiens, UniProt Q9HB15, R11A/R12A/R14A/R15A/R16A/Y292A); assay: Inside-out excised patch recordings, oocytes, THIK-2* Y292A; type: cell-based
T2 construct: expressed in transfected cells; host or cells: Xenopus oocytes (mRNA injection)
T2 sequence (Q9HB15 1-430 R11A/R12A/R14A/R15A/R16A/Y292A): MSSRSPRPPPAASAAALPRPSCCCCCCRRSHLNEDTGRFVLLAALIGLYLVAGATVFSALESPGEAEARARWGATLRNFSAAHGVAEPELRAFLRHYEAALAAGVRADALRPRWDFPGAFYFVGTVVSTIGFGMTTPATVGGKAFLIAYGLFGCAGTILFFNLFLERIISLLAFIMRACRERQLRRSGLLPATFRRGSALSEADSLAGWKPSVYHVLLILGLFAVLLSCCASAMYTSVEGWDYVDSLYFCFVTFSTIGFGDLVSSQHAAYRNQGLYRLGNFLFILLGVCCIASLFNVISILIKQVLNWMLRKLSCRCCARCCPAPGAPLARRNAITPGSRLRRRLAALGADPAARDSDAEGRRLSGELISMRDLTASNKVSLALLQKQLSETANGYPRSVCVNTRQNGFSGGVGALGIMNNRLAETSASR
Text: as §1, §2

inhibition at 152 µM ([1]; halothane 0.152 mM, THIK-1 T110A): 9.23%
inhibition at 304 µM ([1]; halothane 0.304 mM, THIK-1 T110A): 14.1%
inhibition at 1520 µM ([1]; halothane 1.52 mM, THIK-1 T110A): 45.3%
inhibition at 3040 µM ([1]; halothane 3.04 mM, THIK-1 T110A): 63.5%
inhibition at 15200 µM ([1]; halothane 15.2 mM, THIK-1 T110A): 89.5%
Compound: FC(F)(F)C(Cl)Br (stereo not drawn) [halothane]
Inhibition (%) ([1]; 3.0 mM halothane, T110A, individual recordings): 71.250% and 68.098% and 66.319% and 64.813% and 55.507% and 41.148% and 63.240% and 65.945% and 75.271%

Compound: CCCCC[N+](CCCCC)(CCCCC)CCCCC [TPenA, tetrapentylammonium]
Normalized currents ([2]; 0.1 µM TPenA): 1.00
Normalized currents ([2]; 1 µM TPenA): 0.93
Normalized currents ([2]; 10 µM TPenA): 0.74
Normalized currents ([2]; 100 µM TPenA): 0.42
Normalized currents ([2]; 1000 µM TPenA): 0.09
Normalized currents ([2]; 5000 µM TPenA): 0.07
τ of 1 mM TPenA block ([2]; individual recordings): 0.090 s and 0.080 s and 0.060 s and 0.150 s and 0.070 s
τ of 1 mM TPenA release ([2]; individual recordings): 0.680 s and 0.860 s and 0.410 s and 0.480 s and 1.100 s and 0.400 s
τ of 1 mM TPenA block ([2]; mean): 0.09 s
τ of 1 mM TPenA release ([2]; mean): 0.66 s
Normalized currents ([1]; THIK-1 T110A, 15.6 µM TPenA): 1.00
Normalized currents ([1]; THIK-1 T110A, 62.5 µM TPenA): 0.95
Normalized currents ([1]; THIK-1 T110A, 250 µM TPenA): 0.81
Normalized currents ([1]; THIK-1 T110A, 1000 µM TPenA): 0.57
Normalized currents ([1]; THIK-1 T110A, 4000 µM TPenA): 0.28
IC50 ([1]; TPenA IC50, T110A mutant): 1.28 mM
IC50 ([1]; TPenA IC50, THIK-1 T110A, individual recordings): 0.583 mM and 1.57 mM and 0.596 mM and 1.53 mM and 2.42 mM and 1.85 mM and 1.14 mM and 1.6 mM and 1.21 mM and 0.982 mM and 0.651 mM
IC50 ([1]; TPenA IC50, THIK-1 T110A, mean): 1.28 mM

From PMC12263422, “Cryo-EM structure of the human THIK-1 K2P K^+ channel reveals a lower Y gate regulated by lipids and anesthetics” (Nature Structural & Molecular Biology, 2025)
